The values below come from patent US11945806B2, “Stabilization of amyloidogenic immunoglobulin light chains” (The Scripps Research Institute, priority 2019, dated 2024).

In the assay the target is WIL-FL (Homo sapiens, UniProt P01721). Description: Unlabeled LC Protease Sensitivity Assay (proteinase K). In kind it is biochemical. To be noted: small molecule 10 μM, WIL-FL 5 μM, proteinase K 50 nM, 2 hours at 37° C. The procedure, abridged:
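Compound at 10 μM (1% DMSO) is mixed with 5 μM WIL-FL and 50 nM proteinase K in PBS pH 7.4/0.02% Pluronic F-127, 37 °C, 2 h, then quenched with PMSF. Remaining protein measured by SEC-UPLC peak area at 280 nm and expressed as fold protection relative to vehicle and no-protease controls.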
Consider `Cc1cc(=O)oc2cc(C(=O)O)ccc12` [Compound 225, 4-methyl-2-oxo-2H-chromene-7-carboxylic acid], for which the “Protection (fold protection of LC from protease)” value is “A (A < 0.3))”. For `Cc1cc(=O)oc2cc(C(=O)NCc3ccccn3)ccc12` [Compound 226, 4-methyl-2-oxo-N-(pyridin-2-ylmethyl)-2H-chromene-7-carboxamide] the value was “A (A < 0.3))”; for `Cc1cc(=O)oc2cc(C(=O)Nc3ccc4ccccc4c3)ccc12` [Compound 227, 4-methyl-N-(naphthalen-2-yl)-2-oxo-2H-chromene-7-carboxamide], “A (A < 0.3))”; for `Cc1cc(=O)oc2cc(C(=O)NCc3ccncc3)ccc12` [Compound 228, 4-methyl-2-oxo-N-(pyridin-4-ylmethyl)-2H-chromene-7-carboxamide], “A (A < 0.3))”. In the case of `Cc1cc(=O)oc2cc(C(=O)Nc3cc(Cl)c(O)c(Cl)c3)ccc12` [Compound 229, N-(3,5-dichloro-4-hydroxyphenyl)-4-methyl-2-oxo-2H-chromene-7-carboxamide], the “Protection (fold protection of LC from protease)” value is listed as “A (A < 0.3))”. Regarding `Cc1cc(=O)oc2cc(C(=O)NCc3ccc(O)cc3)ccc12` [Compound 230, N-(4-hydroxybenzyl)-4-methyl-2-oxo-2H-chromene-7-carboxamide], the “Protection (fold protection of LC from protease)” value was “A (A < 0.3))”. With `C=CCN(CC=C)c1ccc2c(C)cc(=O)oc2c1` [Compound 231, 7-(diallylamino)-4-methyl-2H-chromen-2-one], the “Protection (fold protection of LC from protease)” value is recorded as “A (A < 0.3))”. To `Cc1cc(=O)oc2cc(C(=O)NCCc3ccc(O)cc3)ccc12` [Compound 232, N-(4-hydroxyphenethyl)-4-methyl-2-oxo-2H-chromene-7-carboxamide] belongs “A (A < 0.3))”; to `Cc1cc(=O)oc2cc(C(=O)Nc3ccc4ccccc4n3)ccc12` [Compound 233, 4-methyl-2-oxo-N-(quinolin-2-yl)-2H-chromene-7-carboxamide], “A (A < 0.3))”; to `Cc1cc(=O)oc2cc(C(=O)Nc3ccnc4ccccc34)ccc12` [Compound 234, 4-methyl-2-oxo-N-(quinolin-4-yl)-2H-chromene-7-carboxamide], “A (A < 0.3))”.

For the molecule `Cc1cc(=O)oc2cc(C(=O)Nc3ccc4ncccc4c3)ccc12` [Compound 235, 4-methyl-2-oxo-N-(quinolin-6-yl)-2H-chromene-7-carboxamide], the “Protection (fold protection of LC from protease)” value was “A (A < 0.3))”. For `Cc1cc(=O)oc2cc(C(=O)NCc3c[nH]c4ccccc34)ccc12` [Compound 236, N-((1H-indol-3-yl)methyl)-4-methyl-2-oxo-2H-chromene-7-carboxamide] the value was “A (A < 0.3))”. To `Cc1cc(=O)oc2cc(C(=O)NCc3ccc4[nH]ccc4c3)ccc12` [Compound 237, N-((1H-indol-5-yl)methyl)-4-methyl-2-oxo-2H-chromene-7-carboxamide] belongs “A (A < 0.3))”; to `Cc1cc(=O)oc2cc(C(=O)Nc3ccc4[nH]cnc4c3)ccc12` [Compound 238, N-(1H-benzo[d]imidazol-6-yl)-4-methyl-2-oxo-2H-chromene-7-carboxamide], “A (A < 0.3))”; to `Cc1cc(=O)oc2cc(C(=O)Nc3ccc4scnc4c3)ccc12` [Compound 239, N-(benzo[d]thiazol-5-yl)-4-methyl-2-oxo-2H-chromene-7-carboxamide], “A (A < 0.3))”.

As for `C=CCNc1ccc2c(C)cc(=O)oc2c1` [Compound 240, 7-(allylamino)-4-methyl-2H-chromen-2-one], the “Protection (fold protection of LC from protease)” value is on record as “A (A < 0.3))”. To `CCCN(CCC)c1ccc2c(C)cc(=O)oc2c1` [Compound 241, 7-(dipropylamino)-4-methyl-2H-chromen-2-one] belongs “A (A < 0.3))”. With `CCCNc1ccc2c(C)cc(=O)oc2c1` [Compound 242, 4-methyl-7-(propylamino)-2H-chromen-2-one], the “Protection (fold protection of LC from protease)” value is reported as “A (A < 0.3))”.

As for `C=C(C)CN(CC(=C)C)c1ccc2c(C)cc(=O)oc2c1` [Compound 243, 7-(bis(2-methylallyl)amino)-4-methyl-2H-chromen-2-one], the “Protection (fold protection of LC from protease)” value is “A (A < 0.3))”.

Regarding `C=C(C)CNc1ccc2c(C)cc(=O)oc2c1` [Compound 244, 4-methyl-7-((2-methylallyl)amino)-2H-chromen-2-one], the “Protection (fold protection of LC from protease)” value is recorded as “A (A < 0.3))”.

Regarding `Cc1cc(=O)oc2cc(N(CC3CC3)CC3CC3)ccc12` [Compound 245, 7-(bis(cyclopropylmethyl)amino)-4-methyl-2H-chromen-2-one], the “Protection (fold protection of LC from protease)” value is reported as “A (A < 0.3))”. To `Cc1cc(=O)oc2cc(NCC3CC3)ccc12` [Compound 246, 7-((cyclopropylmethyl)amino)-4-methyl-2H-chromen-2-one] belongs “A (A < 0.3))”. With `C=CCCNc1ccc2c(C)cc(=O)oc2c1` [Compound 247, 7-(but-3-en-1-ylamino)-4-methyl-2H-chromen-2-one], the “Protection (fold protection of LC from protease)” value is recorded as “A (A < 0.3))”. To `C#CCN(CC#C)c1ccc2c(C)cc(=O)oc2c1` [Compound 248, 7-(di(prop-2-yn-1-yl)amino)-4-methyl-2H-chromen-2-one] belongs “B (3 ≤ B < 0.6)”; to `C#CCNc1ccc2c(C)cc(=O)oc2c1` [Compound 249, 4-methyl-7-(prop-2-yn-1-ylamino)-2H-chromen-2-one], “A (A < 0.3))”.

As for `Cc1cc(=O)oc2cc(N(CCCF)CCCF)ccc12` [Compound 250, 7-(bis(3-fluoropropyl)amino)-4-methyl-2H-chromen-2-one], the “Protection (fold protection of LC from protease)” value is “A (A < 0.3))”. For the molecule `Cc1cc(=O)oc2cc(NCCCF)ccc12` [Compound 251, 7-((3-fluoropropyl)amino)-4-methyl-2H-chromen-2-one], the “Protection (fold protection of LC from protease)” value is on record as “A (A < 0.3))”. To `C=CCN(C)c1ccc2c(C)cc(=O)oc2c1` [Compound 252, 7-(allyl(methyl)amino)-4-methyl-2H-chromen-2-one] belongs “A (A < 0.3))”; to `CCCN(C)c1ccc2c(C)cc(=O)oc2c1` [Compound 253, 4-methyl-7-(methyl(propyl)amino)-2H-chromen-2-one], “A (A < 0.3))”. To `C=C(C)CN(C)c1ccc2c(C)cc(=O)oc2c1` [Compound 254, 4-methyl-7-(methyl(2-methylallyl)amino)-2H-chromen-2-one] belongs “A (A < 0.3))”; to `Cc1cc(=O)oc2cc(N(C)CC3CC3)ccc12` [Compound 255, 7-((cyclopropylmethyl)(methyl)amino)-4-methyl-2H-chromen-2-one], “A (A < 0.3))”; to `C=CCCN(C)c1ccc2c(C)cc(=O)oc2c1` [Compound 256, 7-(but-3-en-1-yl(methyl)amino)-4-methyl-2H-chromen-2-one], “A (A < 0.3))”.
